Measurements from patent US20100041621A1, “METHODS AND COMPOSITIONS FOR IMPROVING COGNITIVE PERFORMANCE” (priority 2008, published 2010).

What was measured:
[1] = test system: anterior cingulate cortex (ACC); experiment: 31P MRSI (3D-CSI, 4 Tesla) of phosphorus metabolites in the anterior cingulate cortex after six weeks of oral citicoline; type: in vivo, human; conditions: 6 weeks, doses pooled, mean ± SD
Source text: (§1) ^31P data were collected using a three-dimensional chemical shift imaging (3D-CSI) technique at 4 Tesla in healthy middle-aged individuals. The use of 3D-CSI at high field has several advantages over previous methods: 1) increased spectral dispersion, which allows for increased precision of metabolite quantification; 2) post-processing grid shifting that allows for 3D placement of voxels of interest; and 3) the ability to co-register voxel placement between baseline and post-treatment follow-up. High-energy metabolite peaks quantified in the present study include phosphocreatine (PCr), β-nucleoside triphosphate (NTP, ATP in brain), and inorganic phosphate (Pi). Phospholipid membrane metabolite peaks quantified include anabolites, phosphomonoesters (PME), including phosphoethanolamine (PE) and phosphocholine (PC), and catabolites, phosphodiesters (PDE), including glycerophosphoethanolamine (GPE) and glycerolphosphocholine (GPC). A region of interest approach was used to examine phosphorus metabolite levels in the anterior cingulate cortex (ACC), given the notable age-related decline in frontal brain metabolism and impairment of frontally-mediated cognitive functions. A comparison region placed in the parieto-occipital cortex (POC) was also evaluated. It was hypothesized that oral supplementation with citicoline would improve frontal bioenergetic metabolism via elevations in availability of high-energy phosphates, as well as alteration of membrane phospholipid turnover by providing additional membrane precursors.
(§2) Subjects included sixteen neurologically and psychiatrically healthy adults (mean age=47.3±5.4 years; 8 females, 8 males). Trained research technicians administered a structured clinical psychiatric interview using the Structured Clinical Interview for DSM-IV (SCID). All subjects were free of Axis I diagnoses, neurological illness, severe medical problems, and psychoactive substance use.
(§3) Subjects were randomly assigned to receive a six-week supply of either 500 mg (4 males and 4 females) or 2000 mg (4 males and 4 females) of Cognizin® Citicoline (Kyowa Hakko Kogyo Co., Ltd., JAPAN). Subjects were instructed to take one capsule every day (500 mg group) or four capsules every day in a single dose (2000 mg group) for six weeks. […] Magnetic resonance spectroscopy (MRS) was completed on all subjects in two imaging sessions: one prior to beginning treatment (baseline) and one after completing six weeks of treatment.
(§4) All proton imaging was performed using the proton channel of the dual tuned open face proton-phosphorus TEM whole-head coil from Bioengineering Inc. (Minneapolis, Minn.) operating at a nominal frequency of 170.3 MHz. A 2D gradient-recalled echo imaging sequence (12 seconds duration) was used to acquire a single image in all three spatial dimensions (sagittal, coronal, axial) to quickly determine the patient's position and angle. High-contrast, T1-weighted sagittal, coronal images as well as T1 and T2-weighted transverse images of the entire brain were acquired using a three-dimensional, magnetization-prepared FLASH imaging sequence (3D-MP FLASH), allowing for clear segmentation between grey-matter, white-matter, and CSF, as well as clearly delineating between the different anatomical regions of interest. This approach was used to optimize […] voxel positioning, and volumetric correction in the regions of interest.
(§5) Phosphorus MRSI was performed using the phosphorus channel of the dual tuned proton-phosphorus TEM whole-head coil from Bioengineering Inc. (Minneapolis, Minn.) operating at 68.9 MHz. Phosphorus MRSI data were recorded using a three-dimensional chemical shift imaging (3D-CSI) sequence (Garraux, Neuroimage 10:149-162, 1999). […]

[2] = test system: axial brain slice through the frontal and occipital cortices; conditions: elderly subjects (69.4±5.6 years), 6 weeks of treatment, 1.5 Tesla; cited from earlier work
[3] = test system: parieto-occipital cortex (POC); experiment: 31P MRSI (3D-CSI, 4 Tesla) of phosphorus metabolites in the parieto-occipital cortex (comparison region) after six weeks of oral citicoline; type: in vivo, human
Source text: as §1, §2, §3, §4, §5

[4] = POC, six weeks, at either dose (500 or 2000 mg)

## C[N+](C)(C)CCOP(=O)(O)OP(=O)([O-])OC[C@H]1O[C@@H](n2ccc(N)nc2=O)[C@H](O)[C@@H]1O [citicoline, CDP-choline]
[1]; baseline .026 ± .010, p .02
  PC, metabolite ratio relative to total 31P signal: .019 ± .008
[1]; baseline .039 ± .010, p .01
  GPE, metabolite ratio relative to total 31P signal: .030 ± .009
[1]; baseline .043 ± .015, p .04
  PE, metabolite ratio relative to total 31P signal: .054 ± .008
[1]; baseline .051 ± .015, ns
  GPC, metabolite ratio relative to total 31P signal: .047 ± .016
[1]; baseline .066 ± .012, p .05
  β-NTP, metabolite ratio relative to total 31P signal: .075 ± .014
[1]; baseline .069 ± .016, ns
  PME, metabolite ratio relative to total 31P signal: .073 ± .012
[1]; baseline .073 ± .012, p .15
  Pi, metabolite ratio relative to total 31P signal: .065 ± .022
[2]
  change in phosphodiesters (PDE, phospholipid membrane catabolites): significant increase
[3]; POC region of interest, baseline vs six weeks
  change in phospholipid membrane metabolites: No significant changes
[3]; POC, 6 weeks, doses pooled, mean ± SD, baseline .023 ± .009, ns
  PC, metabolite ratio relative to total 31P signal: .026 ± .012
[3]; POC, 6 weeks, doses pooled, mean ± SD, baseline .034 ± .011, ns
  GPE, metabolite ratio relative to total 31P signal: .032 ± .014
[3]; POC, 6 weeks, doses pooled, mean ± SD, baseline .047 ± .017, ns
  GPC, metabolite ratio relative to total 31P signal: .047 ± .010
[3]; POC, 6 weeks, doses pooled, mean ± SD, baseline .063 ± .009, ns
  β-NTP, metabolite ratio relative to total 31P signal: .066 ± .010
[3]; POC, 6 weeks, doses pooled, mean ± SD, baseline .065 ± .009, ns
  PE, metabolite ratio relative to total 31P signal: .058 ± .010
[3]; POC, 6 weeks, doses pooled, mean ± SD, baseline .072 ± .010, ns
  Pi, metabolite ratio relative to total 31P signal: .075 ± .013
[3]; POC, 6 weeks, doses pooled, mean ± SD, baseline .088 ± .015, ns
  PME, metabolite ratio relative to total 31P signal: .084 ± .011
[3]; [4]
  change in PCr/Pi ratio: No changes
  change in Pi: No changes
